Measured values from ChEMBL document CHEMBL5338766, “X-ray Crystal Structure-Guided Discovery of Novel Indole Analogues as Colchicine-Binding Site Tubulin Inhibitors with Immune-Potentiating and Antitumor Effects against Melanoma” (J Med Chem, 2023).

Experiments:
Tubulin = assay: Binding affinity to tubulin (unknown origin) assessed as affinity constant by SPR analysis; type: protein-complex assay, Homo sapiens
B16-F10 [1] = assay: Antitumor immunity in C57 mouse implanted with mouse B16-F10 cells assessed as increase in CD3+ CD8+ cytotoxic T cells in tumor at 5 mg/kg, ip administered every day for 14 days by flow cytometric analysis (reference value: 0.340%); type: functional; conditions: time 14 day
HepG2 [2] = assay: Induction of apoptosis in human HepG2 cells assessed as early apoptotic cells at 5 nM incubated for 48 hrs by Annexin V-FITC/PI staining based flow cytometric analysis (reference value: 7.01 %); type: functional
B16-F10 [3] = assay: Antitumor immunity in C57 mouse implanted with mouse B16-F10 cells assessed as increase in CD3+ CD8+ cytotoxic T cells in tumor at 2.5 mg/kg, ip administered every day for 14 days in the presence of NP19 by flow cytometric analysis (reference value: 0.340%); type: functional; conditions: time 14 day
A2780/Taxol = assay: Antiproliferative activity against paclitaxel resistant human A2780/Taxol cells assessed as inhibition of cell proliferation incubated for 48 hrs by MTT assay; type: functional, cell-based
HepG2 [4] = assay: Cell cycle arrest in human HepG2 cells assessed as accumulation of cells at G2 phase at 1 nM incubated for 48 hrs by RNaseA/PI staining based flow cytometric analysis (reference value: 17.37%); type: functional
[5] = Acute toxicity in C57 mouse assessed as survival rate at 80 mg/kg, po administered daily for 14 days relative to control; type: organism-based; conditions: in vivo, time 14 day, read-out: Activity
[6] = Toxicity in C57 mouse implanted with mouse B16-F10 cells assessed as pathological changes in liver at 2.5 mg/kg, ip administered every day for 14 days in the presence of NP19 by H&E staining based microscopic analysis; type: organism-based; conditions: in vivo, 336 h, time 14 day
HepG2 [7] = assay: Induction of apoptosis in human HepG2 cells assessed as viable cells at 0.5 nM incubated for 48 hrs by Annexin V-FITC/PI staining based flow cytometric analysis (reference value: 87.6%); type: functional; conditions: read-out: Activity

COc1cc(-c2nccc3[nH]c(-c4cccc5c4ccn5C)nc23)cc(OC)c1OC
Kd (Tubulin): 18.3 µM | Activity (B16-F10 [1]): 0.923% | Activity (HepG2 [2]): 83.1% | Activity (B16-F10 [3]): 3.34% | IC50 (A2780/Taxol): 0.0051 µM | Activity (HepG2 [4]): 36.46% | survival at 336 h [5]: 20% | Activity [6]: Non-Toxic | viability at 0.0005 µM (HepG2 [7]): 84.6%
